Measurements: patent publication US20040142952A1, “Triazoloquinazoline and pyrazolotriazolopyrimidine derivatives, medicinal compositions, adenosine a3 receptor affinity agents, ocular tension lowering agents, preparations for preventing and treating glaucoma and method of lowering ocular tension” (priority 2001, published 2004)

| SMILES | melting point |
| --- | --- |
| CCCCCc1nc2ccccc2c2nc(-c3ccc(O)cc3)nn12 [Example 157, 2-(4-hydroxyphenyl)-5-n-pentyl-1,2,4-triazolo[1,5-c]quinazoline] | 214 to 215 °C |
| CCCCCc1nc2ccccc2c2nc(-c3ccccc3)nn12 [Example 93, 5-n-pentyl-2-phenyl-1,2,4-triazolo[1,5-c]quinazoline] | 118 to 118.5 °C |
| CCCCc1nc2ccc([N+](=O)[O-])cc2c2nc(-c3ccccc3)nn12 [Example 85, 5-n-butyl-9-nitro-2-phenyl-1,2,4-triazolo[1,5-c]quinazoline] | 205.5 to 206 °C |
| O=C(O)CCCc1nc2nncc-2c2nc(-c3ccc(Cl)cc3)[nH]n12 [Example 149, 4-[2-(4-chlorophenyl)pyrazolo[4,3-e]-1,2,4-triazolo[1,5-c]pyrimidin-5-yl]butyric acid] | 253.5 to 255.5 °C |
| CCCCc1nc2ccccc2c2nc(-c3ccc([N+](=O)[O-])cc3)nn12 [Example 39, 5-n-butyl-2-(4-nitrophenyl)-1,2,4-triazolo[1,5-c]quinazoline] | 194 to 195 °C |
| COC(=O)CCCc1nc2nncc-2c2nc(-c3ccc(C)cc3)[nH]n12 [Example 92, methyl 4-[2-(4-methylphenyl)pyrazolo[4,3-e]-1,2,4-triazolo[1,5-c]pyrimidin-5-yl]butyrate] | 196.5 to 197 °C |
| CCCCc1nc2nn(C)cc2c2nc(-c3ccc(Cl)cc3)nn12 [Example 119, 2-(4-chlorophenyl)-5-n-butyl-8-methylpyrazolo[4,3-e]-1,2,4-triazolo[1,5-c]pyrimidine] | 203.5 to 205 °C |
| CCCCc1nc2c(cnn2CC(=O)O)c2nc(-c3ccccc3)nn12 [Example 151, 2-(5-n-butyl-2-phenylpyrazolo[4,3-e]-1,2,4-triazolo[1,5-c]pyrimidin-7-yl)acetic acid] | 271 to 272.5 °C |
| CCCCc1nc2nn(C)cc2c2nc(-c3ccccc3)nn12 [Example 111, 5-n-butyl-8-methyl-2-phenylpyrazolo[4,3-e]-1,2,4-triazolo[1,5-c]pyrimidine] | 184 to 185 °C |
| CCCCc1nc2c(cnn2CCC)c2nc(-c3ccccc3)nn12 [Example 112, 5-n-butyl-2-phenyl-7-n-propylpyrazolo[4,3-e]-1,2,4-triazolo[1,5-c]pyrimidine] | 100.5 to 101.5 °C |
| CCc1nc2nncc-2c2nc(-c3ccc(C)cc3)[nH]n12 [Example 65, 5-ethyl-2-(4-methylphenyl)pyrazolo[4,3-e]-1,2,4-triazolo[1,5-c]pyrimidine] | > 280 °C |
| CCCCc1nc2c(cnn2Cc2ccccc2)c2nc(-c3ccccc3)nn12 [Example 116, 7-benzyl-5-n-butyl-2-phenylpyrazolo[4,3-e]-1,2,4-triazolo[1,5-c]pyrimidine] | 108 to 109 °C |
| CCc1nc2ccccc2c2nc(-c3ccc(OC)cc3)nn12 [Example 71, 5-ethyl-2-(4-methoxyphenyl)-1,2,4-triazolo[1,5-c]quinazoline] | 167.5 to 168 °C |
| CCCCCc1nc2ccccc2c2nc(-c3ccc(Br)cc3)nn12 [Example 102, 2-(4-bromophenyl)-5-n-pentyl-1,2,4-triazolo[1,5-c]quinazoline] | 133 to 134 °C |
| CCCCCc1nc2ccccc2c2nc(-c3ccc(Cl)cc3)nn12 [Example 103, 2-(4-chlorophenyl)-5-n-pentyl-1,2,4-triazolo[1,5-c]quinazoline] | 118 to 119.5 °C |
| CCCCc1nc2nncc-2c2nc(-c3cccs3)[nH]n12 [Example 20, 5-n-butyl-2-(2-thienyl)pyrazolo[4,3-e]-1,2,4-triazolo[1,5-c]pyrimidine] | 214 to 216 °C |

| SMILES | melting point |
| --- | --- |
| CCCc1nc2cc(Cl)ccc2c2nc(-c3ccccc3)nn12 [Example 79, 8-chloro-2-phenyl-5-n-propyl-1,2,4-triazolo[1,5-c]quinazoline] | 147 to 149 °C |
| CCc1nc2ccc(Cl)cc2c2nc(-c3ccc(Cl)cc3)nn12 [Example 86, 9-chloro-2-(4-chlorophenyl)-5-ethyl-1,2,4-triazolo[1,5-c]quinazoline] | 213 to 214 °C |
| COC(=O)CCCc1nc2ccccc2c2nc(-c3ccc(Br)cc3)nn12 [Example 97, methyl 4-[2-(4-bromophenyl)-1,2,4-triazolo[1,5-c]quinazolin-5-yl]butyrate] | 125 to 126 °C |
| CCCCc1nc2nncc-2c2nc(-c3ccc(O)cc3)[nH]n12 [Example 12, 5-n-butyl-2-(4-hydroxyphenyl)pyrazolo[4,3-e]-1,2,4-triazolo[1,5-c]pyrimidine] | > 280 °C |
| CCCCc1nc2cc(Cl)ccc2c2nc(-c3ccc(C)cc3)nn12 [Example 83, 5-n-butyl-8-chloro-2-(4-methylphenyl)-1,2,4-triazolo[1,5-c]quinazoline] | 134 to 134.5 °C |
| CCCCc1nc2ccccc2c2nc(-c3ccc(N(C)C)cc3)nn12 [Example 38, 5-n-butyl-2-[4-(N,N-dimethylamino)phenyl]-1,2,4-triazolo[1,5-c]quinazoline] | 148.5 to 150 °C |
| COC(=O)CCCc1nc2nncc-2c2nc(-c3ccc(Cl)cc3)[nH]n12 [Example 91, methyl 4-[2-(4-chlorophenyl)pyrazolo[4,3-e]-1,2,4-triazolo[1,5-c]pyrimidin-5-yl]butyrate] | 194.5 to 196.5 °C |
| CCCCc1nc2nn(CC)cc2c2nc(-c3ccc(OC)cc3)nn12 [Example 142, 5-n-butyl-8-ethyl-2-(4-methoxyphenyl)pyrazolo[4,3-e]-1,2,4-triazolo[1,5-c]pyrimidine] | 127 to 128 °C |
| c1ccc(-c2nc3c4cnnc-4nc(-c4ccccc4)n3[nH]2)cc1 [Example 59, 2,5-diphenylpyrazolo[4,3-e]-1,2,4-triazolo[1,5-c]pyrimidine] | 272.5 to 275 °C |
| O=C(O)CCCc1nc2ccccc2c2nc(-c3ccccc3)nn12 [Example 153, 4-(2-phenyl-1,2,4-triazolo[1,5-c]quinazolin-5-yl)butyric acid] | 211 to 211.5 °C |
| CCCCc1nc2nn(CCO)cc2c2nc(-c3ccc(Cl)cc3)nn12 [Example 139, 5-n-butyl-2-(4-chlorophenyl)-8-(2-hydroxyethyl)pyrazolo[4,3-e]-1,2,4-triazolo[1,5-c]pyrimidine] | 189 to 190.5 °C |
| CCCCc1nc2ccccc2c2nc(-c3cccc(Cl)c3)nn12 [Example 25, 5-n-butyl-2-(3-chlorophenyl)-1,2,4-triazolo[1,5-c]quinazoline] | 129 to 131 °C |
| CCCCc1nc2c(cnn2CCO)c2nc(-c3ccc(C)cc3)nn12 [Example 136, 5-n-butyl-7-(2-hydroxyethyl)-2-(4-methylphenyl)pyrazolo[4,3-e]-1,2,4-triazolo[1,5-c]pyrimidine] | 134 to 136 °C |
| CCCCc1nc2nn(CC)cc2c2nc(-c3ccc(Cl)cc3)nn12 [Example 145, 5-n-butyl-2-(4-chlorophenyl)-8-ethylpyrazolo[4,3-e]-1,2,4-triazolo[1,5-c]pyrimidine] | 141 to 142 °C |
| COC(=O)CCCc1nc2ccccc2c2nc(-c3ccc(Cl)cc3)nn12 [Example 99, methyl 4-[2-(4-chlorophenyl)-1,2,4-triazolo[1,5-c]quinazolin-5-yl]butyrate] | 128 to 129 °C |
